For this series the following is noted: mouse, in vivo.

Structures are written as SMILES. Peptide text beside a SMILES is read from it. * marks the point of attachment. X1 = CCCCCCCCCCCCCCCC(=O)OCC(C*)OC(=O)CCCCCCCCCCCCCCC

Regarding `CCCCCCCCCCCCCCCC(=O)OCC(CSC[C@H](N)C(=O)N[C@@H](CO)C(=O)N[C@@H](CO)C(=O)NCCOCCOCCOCCOCCOCCOCCOCCOCCOCCOCCOCCOCCC(=O)NCC(N)=O)OC(=O)CCCCCCCCCCCCCCC` (some centres unmarked) [INNA-003, PEG-S—S-Pam2Cys], the highest weight loss is given as 4.67%±2.12%.
Regarding `CCCCCCCCCCCCCCCC(=O)OCC(CSC[C@H](N)C(=O)N[C@@H](CO)C(=O)N[C@@H](CCCCN)C(=O)N[C@@H](CCCCN)C(=O)N[C@@H](CCCCN)C(=O)N[C@@H](CCCCN)C(=O)O)OC(=O)CCCCCCCCCCCCCCC` (some centres unmarked) [Pam2Cys-SK4, dipalmitoyl-S-glyceryl cysteine-serine-(lysine)4, reference compound] (H-C(X1)SKKKK-OH), the “weight loss relative to baseline” value is “little or no weight loss”.

The record behind these values is patent publication US20210177795A1 (priority 2017, published 2021).
